How the values were obtained:
Type in all cases: in vivo
[1] = system: Alopecurus myosuroides (ALOMY); assay: Pre-emergence herbicidal glasshouse test; conditions: 250 g/Ha, evaluated after 13 days
Protocol: (§1) Seeds of a variety of test species are sown in standard soil in pots (Lolium perenne (LOLPE), Setaria faberi (SETFA), Alopecurus myosuroides (ALOMY), Echinochloa crus-galli (ECHCG), Avena fatua (AVEFA)). After cultivation for one day (pre-emergence) or after 8 days cultivation (post-emergence) under controlled conditions in a glasshouse (at 24/16° C., day/night; 14 hours light; 65% humidity), the plants are sprayed with an aqueous spray solution derived from the formulation of the technical active ingredient in acetone/water (50:50) solution containing 0.5% Tween 20 (polyoxyethelyene sorbitan monolaurate, CAS RN 9005-64-5). Compounds are applied at 250 g/h. The test plants are then grown in a glasshouse under controlled conditions in a glasshouse (at 24/16° C., day/night; 14 hours light; 65% humidity) and watered twice daily. After 13 days for pre and post-emergence, the test is evaluated for the percentage damage caused to the plant. The biological activities are shown in the following table on a five point scale (5=80-100%; 4=60-79%; 3=40-59%; 2=20-39%; 1=0-19%). NT=not tested.

Lolium perenne (LOLPE) [2] = assay: Pre-emergence herbicidal glasshouse test; conditions: 250 g/Ha, evaluated after 13 days
Protocol: as §1

Avena fatua (AVEFA) [3] = assay: Pre-emergence herbicidal glasshouse test; conditions: 250 g/Ha, evaluated after 13 days
Protocol: as §1

[4] = system: Echinochloa crus-galli (ECHCG); assay: Pre-emergence herbicidal glasshouse test; conditions: 250 g/Ha, evaluated after 13 days
Protocol: as §1

Setaria faberi (SETFA) [5] = assay: Pre-emergence herbicidal glasshouse test; conditions: 250 g/Ha, evaluated after 13 days
Protocol: as §1

[6] = system: Alopecurus myosuroides (ALOMY); assay: Post-emergence herbicidal glasshouse test; conditions: 250 g/Ha, evaluated after 13 days
Protocol: as §1

Lolium perenne (LOLPE) [7] = assay: Post-emergence herbicidal glasshouse test; conditions: 250 g/Ha, evaluated after 13 days
Protocol: as §1

Avena fatua (AVEFA) [8] = assay: Post-emergence herbicidal glasshouse test; conditions: 250 g/Ha, evaluated after 13 days
Protocol: as §1

[9] = system: Echinochloa crus-galli (ECHCG); assay: Post-emergence herbicidal glasshouse test; conditions: 250 g/Ha, evaluated after 13 days
Protocol: as §1

Setaria faberi (SETFA) [10] = assay: Post-emergence herbicidal glasshouse test; conditions: 250 g/Ha, evaluated after 13 days
Protocol: as §1

wheat crop plants = assay: Crop phytotoxicity comparison, post-emergence; conditions: post-emergence
Protocol: as §1
(§2) Using procedures outlines above, wheat and barley crop plants are treated, post-emergence with compounds A1, A3 or A8 of the present invention or comparator compound C1 (Compound A-38 from WO2014/096289) at the application rates indicated. The compounds were also applied in conjunction with the safener compound cloquintocet-mexyl (CQC) at 50 g/ha.

barley crop plants = assay: Crop phytotoxicity comparison, post-emergence; conditions: post-emergence
Protocol: as §1, §2

CC#Cc1cc(C)c(C2C(=O)CC3(CCN(C(=O)C(C)=NOCCOC)CC3)CC2=O)c(C)c1 [Compound A11]
percentage damage caused to the plant, five point scale, ALOMY [1]: 5 (5=80-100%) | percentage damage caused to the plant, five point scale, LOLPE (Lolium perenne (LOLPE) [2]): 5 (5=80-100%) | percentage damage caused to the plant, five point scale, AVEFA (Avena fatua (AVEFA) [3]): 3 (3=40-59%) | percentage damage caused to the plant, five point scale, ECHCG [4]: 5 (5=80-100%) | percentage damage caused to the plant, five point scale, SETFA (Setaria faberi (SETFA) [5]): 5 (5=80-100%) | percentage damage caused to the plant, five point scale, ALOMY [6]: 5 (5=80-100%) | percentage damage caused to the plant, five point scale, LOLPE (Lolium perenne (LOLPE) [7]): 5 (5=80-100%) | percentage damage caused to the plant, five point scale, AVEFA (Avena fatua (AVEFA) [8]): 5 (5=80-100%) | percentage damage caused to the plant, five point scale, ECHCG [9]: 5 (5=80-100%) | percentage damage caused to the plant, five point scale, SETFA (Setaria faberi (SETFA) [10]): 5 (5=80-100%)

CC#Cc1cc(C)c(C2C(=O)CC3(CCOCC3)CC2=O)c(C)c1 [Compound C1, reference compound]
% phytotoxicity observed, Wheat (wheat crop plants; 30 g/ha): 40% | % phytotoxicity observed, Wheat (wheat crop plants; 60 g/ha): 70% | % phytotoxicity observed, Wheat (wheat crop plants; 60 g/ha + safener cloquintocet-mexyl (CQC) at 50 g/ha): 60% | % phytotoxicity observed, Barley (barley crop plants; 30 g/ha): 80% | % phytotoxicity observed, Barley (barley crop plants; 60 g/ha): 90%

CC#Cc1cc(C)c(C2C(=O)CC3(CCN(C(=O)/C(C)=N/Oc4ccccn4)CC3)CC2=O)c(C)c1 [Compound A6, 9-(2,6-dimethyl-4-prop-1-ynyl-phenyl)-3-[(2E)-2-(2-pyridyloxyimino)propanoyl]-3-azaspiro[5.5]undecane-8,10-dione]
percentage damage caused to the plant, five point scale, ALOMY [1]: 5 (5=80-100%) | percentage damage caused to the plant, five point scale, LOLPE (Lolium perenne (LOLPE) [2]): 5 (5=80-100%) | percentage damage caused to the plant, five point scale, AVEFA (Avena fatua (AVEFA) [3]): 5 (5=80-100%) | percentage damage caused to the plant, five point scale, ECHCG [4]: 5 (5=80-100%) | percentage damage caused to the plant, five point scale, SETFA (Setaria faberi (SETFA) [5]): 5 (5=80-100%) | percentage damage caused to the plant, five point scale, ALOMY [6]: 5 (5=80-100%) | percentage damage caused to the plant, five point scale, LOLPE (Lolium perenne (LOLPE) [7]): 5 (5=80-100%) | percentage damage caused to the plant, five point scale, AVEFA (Avena fatua (AVEFA) [8]): 5 (5=80-100%) | percentage damage caused to the plant, five point scale, ECHCG [9]: 5 (5=80-100%) | percentage damage caused to the plant, five point scale, SETFA (Setaria faberi (SETFA) [10]): 5 (5=80-100%)

CC#Cc1cc(C)c(C2C(=O)CC3(CCN(C(=O)C(C)=NOCC)CC3)CC2=O)c(C)c1 [Compound A2]
percentage damage caused to the plant, five point scale, ALOMY [1]: 5 (5=80-100%) | percentage damage caused to the plant, five point scale, LOLPE (Lolium perenne (LOLPE) [2]): 5 (5=80-100%) | percentage damage caused to the plant, five point scale, AVEFA (Avena fatua (AVEFA) [3]): 5 (5=80-100%) | percentage damage caused to the plant, five point scale, ECHCG [4]: 5 (5=80-100%) | percentage damage caused to the plant, five point scale, SETFA (Setaria faberi (SETFA) [5]): 5 (5=80-100%) | percentage damage caused to the plant, five point scale, ALOMY [6]: 5 (5=80-100%) | percentage damage caused to the plant, five point scale, LOLPE (Lolium perenne (LOLPE) [7]): 5 (5=80-100%) | percentage damage caused to the plant, five point scale, AVEFA (Avena fatua (AVEFA) [8]): 5 (5=80-100%) | percentage damage caused to the plant, five point scale, ECHCG [9]: 5 (5=80-100%) | percentage damage caused to the plant, five point scale, SETFA (Setaria faberi (SETFA) [10]): 5 (5=80-100%)

CC#Cc1cc(C)c(C2C(=O)CC3(CCN(C(=O)/C(C)=N\O)CC3)CC2=O)c(C)c1 [Compound A5]
percentage damage caused to the plant, five point scale, ALOMY [1]: 4 (4=60-79%) | percentage damage caused to the plant, five point scale, LOLPE (Lolium perenne (LOLPE) [2]): 5 (5=80-100%) | percentage damage caused to the plant, five point scale, AVEFA (Avena fatua (AVEFA) [3]): 5 (5=80-100%) | percentage damage caused to the plant, five point scale, ECHCG [4]: 5 (5=80-100%) | percentage damage caused to the plant, five point scale, SETFA (Setaria faberi (SETFA) [5]): 5 (5=80-100%) | percentage damage caused to the plant, five point scale, ALOMY [6]: 5 (5=80-100%) | percentage damage caused to the plant, five point scale, LOLPE (Lolium perenne (LOLPE) [7]): 5 (5=80-100%) | percentage damage caused to the plant, five point scale, AVEFA (Avena fatua (AVEFA) [8]): 5 (5=80-100%) | percentage damage caused to the plant, five point scale, ECHCG [9]: 5 (5=80-100%) | percentage damage caused to the plant, five point scale, SETFA (Setaria faberi (SETFA) [10]): 5 (5=80-100%)

Reference: patent US12161115B2, “Herbicidal compounds” (SYNGENTA CROP PROTECTION AG, priority 2019, dated 2024)
